Assay results: patent US20260000642A1 (Tay Therapeutics Limited, priority 2022, published 2026)
≈ marks a conversion by molar mass, not a printed value.

Columns and labels:
[1] = biological target: T1, BRD4 BD1 (Homo sapiens, UniProt O60885); assay: NanoBRET bromodomain assay, NanoLuc-BRD4-BD1 fusion vector in HEK293 cells; assay type: cell-based; conditions: top concentration 10 μM
T1 construct: HEK293 cells were transfected using NanoLuc-BRD4-BD1 or NanoLuc-BRD4-BD2 fusion vectors; host or cells: HEK293
Source text: (§1) Bromodomain Assay Procedure

[2] = Thermodynamic solubility in FaSSIF pH 6.5 buffer; assay type: physicochemical; conditions: thermodynamic from solid, FaSSIF pH 6.5, 25° C., Method 2 (LCMS)
Source text: BET protein inhibitors with a high aqueous solubility are in some embodiments promising oral drug candidates. Some of the exemplary compounds of the current disclosure have high solubility (measured in μM) in Fasted State Simulated Intestinal Fluid (FaSSIF) pH 6.5 buffer. The experimental methods and results (Table 4) are provided hereinafter.
Thermodynamic Solubility Assay, Method 1
FaSSIF v2 buffer is freshly prepared prior to use according to the suppliers' instructions and the pH adjusted to 6.5 using 1 M NaOH or 1 M HCl as required. From 1 mM working solution of test compound in DMSO, the λmax of the test compound is determined by scanning from 200 nm to 700 nm, in 1 nm steps with an EPOCH UV/Visible spectrophotometer (Biotek Instruments Inc.). A 12-point standard curve of compound concentration versus absorption at λmax is generated via two-fold serial dilutions of the 1 mM working solution with DMSO. Approximately 1 mg of test compound is accurately weighed into an Eppendorf tube and the appropriate volume of FaSSIF buffer is added to make a nominal concentration of 1 mg/mL. […]
FaSSIF buffer was prepared according to the suppliers' instructions and the pH adjusted to 6.5 using 1 M NaOH or 1 M HCl as required. […] The concentration of the test compound in the filtrate was determined by LCMS analysis with reference to the internal standards to determine the solubility in the buffer.

[3] = Plasma stability assay, rat plasma; assay type: in vitro ADME; conditions: 37° C., Method 2 (10 μM)
Method: Exemplary compounds of the disclosure are stable upon incubation in mouse plasma. Stability is expressed as a % remaining after 120 minutes. The experimental methods and results (Table 2) are provided hereinafter.
Plasma Stability Assay, Method 1
From stock solution of compound in 10 mM DMSO, a working solution of 1 mM is prepared by diluting the compound in DMSO. To 398 μL of plasma pre-warmed at 37° C. for 15 minutes), 2 μL of working solution of compound is added, resulting in a final concentration of 5 μM (0.5% DMSO) for the compound. The sample is then incubated at 37° C. Aliquot is withdrawn at specified time-points (0, 15, 30, 60 and 120 mins). The reaction is stopped by addition of 450 μL cold acetonitrile containing internal standard (IS). […] Aliquots of the supernatant is analysed using LC-MS/MS. The percent remaining of the compound at each time point is calculated with respect to the control sample (0 min time-point).
Plasma Stability Assay, Method 2
A working solution of compound (500 μM) is prepared in DMSO (100%). To 735 μL of plasma, 15 μL of working solution of compound is added—resulting in a final concentration of 10 μM (2% DMSO) for the compound. The sample is then incubated at 37° C. Aliquot is withdrawn at time-points—0, 15, 30, 60, 90 and 120 mins. The reaction is stopped by using chilled acetonitrile containing internal standard (IS). The samples are centrifuged and the supernatants analyzed using LC-MS/MS. The percent remaining of the compound at each time point is calculated with respect to the control sample (0 min time-point).

[4] = biological target: T2, BRD4 BD2 (Homo sapiens, UniProt O60885); assay: NanoBRET bromodomain assay, NanoLuc-BRD4-BD2 fusion vector in HEK293 cells; assay type: cell-based; conditions: NanoBRET, HEK293 cells, top concentration 10 μM
T2 construct: HEK293 cells were transfected using NanoLuc-BRD4-BD1 or NanoLuc-BRD4-BD2 fusion vectors; host or cells: HEK293
Source text: as §1

- IC50 [1]: ≥ 10000 nM
- solubility thermodynamic [2]: 1230 µM (≈ 516 µg/mL)
- Plasma Stability (% remaining at 120 minutes) Rat [3]: 89%
- IC50 [4]: 50 to 200 nM
SMILES: CNC(=O)c1[nH]c(C(=O)NC2CCC(O)CC2)cc1OC(C)c1ccc(Cl)cc1 (single isomer, unassigned) [Example 29, 3-(1-(4-chlorophenyl)ethoxy)-N^5-(4-hydroxycyclohexyl)-N^2-methyl-1H-pyrrole-2,5-dicarboxamide]
